TGI data for eight molecules are collected here from PubChem BioAssay (NCI).

The structures appear in SMILES notation.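 Five concentrations, 48 hours, 96-well plates. TGI is the concentration that stops growth completely.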

Some test systems named below: MDA-MB-435; CAKI-1 renal; OVCAR-3 ovarian; HL-60(TB) leukemia; T-47D breast; SF-539 CNS; HOP-62 NSCLC; M14 melanoma; NCI-H23 lung; EKVX NSCLC; HCT-116 colon; SNB-75 CNS; 786-0 renal; SF-268 CNS; OVCAR-5 ovarian; HCC-2998 colon; MDA-N; SNB-19 CNS; RXF 393 renal; NCI-H226 lung.
Holding throughout (assay): NCI anticancer screen, dose series, 48 h

Turning to `CCOC(=O)C(Cc1ccc2c(c1)CCC2)Cc1ccc2c(c1)CCC2`, the TGI was more than 100 µM with MDA-MB-435; more than 100 µM in the experiment on CAKI-1 renal; more than 100 µM in the experiment on OVCAR-3 ovarian; 58.2 µM in the experiment on HL-60(TB) leukemia; more than 100 µM in the experiment with T-47D breast; more than 100 µM in the experiment on SF-539 CNS. Further, the TGI in the experiment with HOP-62 NSCLC, in the experiment on M14 melanoma, in the experiment on NCI-H23 lung, with EKVX NSCLC, in the experiment with HCT-116 colon and in the experiment with SNB-75 CNS was more than 100 µM each time. In addition, the TGI in the experiment with 786-0 renal, with SF-268 CNS, in the experiment on OVCAR-5 ovarian, in the experiment on HCC-2998 colon, with MDA-N and in the experiment on SNB-19 CNS was more than 100 µM throughout. The TGI in the experiment on RXF 393 renal was more than 100 µM.
For `O=[N+]([O-])c1ccc(OP(=O)(O)OCC2OC(CP(=O)(O)O)C(O)C2O)cc1` (centres undefined), the TGI in the experiment on MDA-MB-435, with CAKI-1 renal, with OVCAR-3 ovarian, with HL-60(TB) leukemia, in the experiment on T-47D breast and with SF-539 CNS was more than 100 µM throughout. In addition, the TGI with HOP-62 NSCLC, in the experiment with M14 melanoma, in the experiment with NCI-H23 lung, with EKVX NSCLC, in the experiment with HCT-116 colon and with 786-0 renal was more than 100 µM throughout. The TGI in the experiment with SF-268 CNS, in the experiment on OVCAR-5 ovarian, in the experiment with HCC-2998 colon, in the experiment on MDA-N, in the experiment on SNB-19 CNS and in the experiment on RXF 393 renal was more than 100 µM in each case.
Turning to `N#CC12CC=C(c3ccccc3)N=C1NC(c1ccccc1)=CC2` (centres undefined), the TGI in the experiment with MDA-MB-435 was more than 100 µM; in the experiment with OVCAR-3 ovarian, more than 100 µM; in the experiment on HL-60(TB) leukemia it was 50.5 µM; in the experiment on T-47D breast, more than 100 µM; with SF-539 CNS, more than 100 µM; in the experiment on HOP-62 NSCLC, more than 100 µM. Further, the TGI in the experiment on NCI-H226 lung, with M14 melanoma, in the experiment on NCI-H23 lung, with EKVX NSCLC, in the experiment with HCT-116 colon and in the experiment on SNB-75 CNS was more than 100 µM in each case. Also, the TGI in the experiment with 786-0 renal, in the experiment with SF-268 CNS, with OVCAR-5 ovarian, in the experiment with HCC-2998 colon, in the experiment on MDA-N and in the experiment on SNB-19 CNS was more than 100 µM throughout. The TGI in the experiment on RXF 393 renal was more than 100 µM.
Take `O=C(Nc1ccc(Cl)cc1Cl)c1cc2nc3ccccc3c(=O)n2c2ccccc12`: the TGI in the experiment on MDA-MB-435, with CAKI-1 renal, with OVCAR-3 ovarian, in the experiment with HL-60(TB) leukemia, in the experiment with T-47D breast and in the experiment with SF-539 CNS was more than 10 µM throughout. For the same molecule, the TGI in the experiment on HOP-62 NSCLC, in the experiment on M14 melanoma, with NCI-H23 lung, in the experiment on EKVX NSCLC, in the experiment on HCT-116 colon and in the experiment with 786-0 renal was more than 10 µM throughout. The TGI in the experiment with SF-268 CNS, in the experiment with OVCAR-5 ovarian, in the experiment on HCC-2998 colon, in the experiment with MDA-N, with SNB-19 CNS and in the experiment on RXF 393 renal was more than 10 µM each time.
As to `CCSC1=C(C#N)C2(CCCCC2)C2=C(CC(C)(C)CC2=O)N1`, the TGI with MDA-MB-435, in the experiment with CAKI-1 renal, in the experiment on HL-60(TB) leukemia, in the experiment on T-47D breast, in the experiment on SF-539 CNS and in the experiment on NCI-H226 lung was more than 100 µM in each case. The TGI in the experiment with M14 melanoma was more than 100 µM; in the experiment with NCI-H23 lung it was more than 100 µM; with EKVX NSCLC, 68.4 µM; in the experiment on HCT-116 colon, more than 100 µM; with SNB-75 CNS it was 71.1 µM; in the experiment with 786-0 renal, more than 100 µM. Also, the TGI is more than 100 µM in the experiment on SF-268 CNS; more than 100 µM with OVCAR-5 ovarian; more than 100 µM with HCC-2998 colon; more than 100 µM with MDA-N; 76.2 µM in the experiment with SNB-19 CNS; more than 100 µM in the experiment with RXF 393 renal.
In the case of `c1csc(-c2sc(-c3ccsc3)cc2Cc2ccsc2)c1`, the TGI in the experiment with MDA-MB-435, with CAKI-1 renal, with HL-60(TB) leukemia, in the experiment on T-47D breast, with HOP-62 NSCLC and in the experiment with M14 melanoma was more than 10 µM each time. Moreover, the TGI in the experiment on NCI-H23 lung, in the experiment with EKVX NSCLC, with SNB-75 CNS, with 786-0 renal, in the experiment with SF-268 CNS and in the experiment on HCC-2998 colon was more than 10 µM in each case. Besides, the TGI with MDA-N and in the experiment with RXF 393 renal was more than 10 µM each time.
Regarding `CCCC(=O)n1[nH]c(=O)n(C(C)(C)C)c1=O`, the TGI in the experiment with MDA-MB-435, in the experiment with CAKI-1 renal, in the experiment on OVCAR-3 ovarian, in the experiment on HL-60(TB) leukemia, in the experiment with T-47D breast and in the experiment with HOP-62 NSCLC was more than 100 µM in each case. For the same molecule, the TGI with NCI-H226 lung, in the experiment on M14 melanoma, in the experiment with NCI-H23 lung, in the experiment with EKVX NSCLC, in the experiment with HCT-116 colon and in the experiment with SNB-75 CNS was more than 100 µM each time. For the same molecule, the TGI in the experiment with 786-0 renal, in the experiment with SF-268 CNS, in the experiment with OVCAR-5 ovarian, in the experiment on HCC-2998 colon, in the experiment with MDA-N and with SNB-19 CNS was more than 100 µM in each case. Further, in the experiment with RXF 393 renal, the TGI is more than 100 µM.
For `CC(C)CC(NC=O)C(=O)NC(Cc1ccccc1)NC(=O)CNC(=O)C(C)NC(=O)OC(C)(C)C` (centres undefined), the TGI in the experiment with MDA-MB-435, in the experiment on CAKI-1 renal, with OVCAR-3 ovarian, in the experiment on HL-60(TB) leukemia, in the experiment on T-47D breast and in the experiment on SF-539 CNS was more than 100 µM each time. Besides, the TGI with HOP-62 NSCLC, in the experiment with NCI-H226 lung, in the experiment with M14 melanoma, in the experiment on NCI-H23 lung, in the experiment on EKVX NSCLC and in the experiment on HCT-116 colon was more than 100 µM throughout. Besides, the TGI in the experiment on SNB-75 CNS, in the experiment with 786-0 renal, in the experiment with SF-268 CNS, with OVCAR-5 ovarian, with MDA-N and in the experiment on SNB-19 CNS was more than 100 µM each time. Also, the TGI with RXF 393 renal is more than 100 µM.
